The logP is the decadic logarithm of the partition coefficient of the neutral form, usually between octanol and water. Read a high logP as a more lipophilic compound. `O=C(O)c1cc([N+](=O)[O-])ccc1O` showed a logP of 1.98. The compound `O=C1c2ccccc2C(=O)C1c1ccc(Br)cc1` returned a logP of 3.76. Compound `O=C1c2ccccc2C(=O)C1c1ccc(C(F)(F)F)cc1` came in with a logP of 3.78.

Consider `O=C1c2ccccc2C(=O)C1c1cccc(Cl)c1`, for which the logP turned out to be 3.61. `CC(C)(C)c1cc(C2C(=O)c3ccccc3C2=O)cc(C(C)(C)C)c1` registered a logP of 6.86. The compound `CC(C)(C)c1ccc(C2C(=O)c3ccccc3C2=O)cc1` had a logP of 4.88. Compound `CCCc1ccc(CC(=O)O)cc1` displayed a logP of 2.75. `Cc1cc(C)c(C(=O)O)c(C)c1` registered a logP of 3.69.

The compound `CCCOc1ccc(CC(=O)O)cc1` yielded a logP of 2.31. Take `CCCCc1ccc(CC(=O)O)cc1`: the logP is 3.25. Take `CCCCCCCCCCC(=O)O`: the logP worked out at 4.42. For `O=C(O)Cc1ccc(C2CCCC2)cc1` the value was 3.44; for `O=C(O)Cc1ccccc1`, 1.41. Then `O=C(O)Cc1ccc(I)cc1`, with 2.53; and `O=C(O)Cc1ccc(C2CCCCC2)cc1`, with 3.81. Take `CCCCCCC(=O)O`: the logP amounted to 2.42. For `COc1ccc(C2C(=O)c3ccccc3C2=O)cc1` the value was 2.88. Then `CCc1ccc(C2C(=O)c3ccccc3C2=O)cc1`, with 3.92. `CC(C)c1cccc(C2C(=O)c3ccccc3C2=O)c1` displayed a logP of 4.43. For the compound `CC(C)(C)c1cccc(C2C(=O)c3ccccc3C2=O)c1`, the lipophilicity (logP) turned out to be 4.88.

`CCCCCCCCc1ccc(C2C(=O)c3ccccc3C2=O)cc1`: the logP amounted to 6.93.

Consider `Cc1cccc(C2C(=O)c3ccccc3C2=O)c1`, for which the logP was determined as 3.46. On to `CC(C)c1ccc(C2C(=O)c3ccccc3C2=O)cc1`, for which the logP came out at 4.43. As for `CCC(C)(C)c1ccc(CC(=O)O)cc1`, the lipophilicity (logP) was found to be 3.48. Consider `O=C1c2ccccc2C(=O)C1c1cccc(C(F)(F)F)c1`, for which the logP stood at 3.78. `Cc1ccc(C2C(=O)c3ccccc3C2=O)cc1` registered a logP of 3.46. For `O=[N+]([O-])c1cc(Cl)c(O)c(Cl)c1` the value was 2.96. In turn, `O=C1c2ccccc2C(=O)C1c1cc(Cl)cc(Cl)c1` came in with a logP of 4.32. For `O=C1c2ccccc2C(=O)C1c1ccc(-c2ccccc2)cc1`, the logP turned out to be 4.79.

Compound `O=C(O)CCCCCC(=O)O` came in with a logP of 0.61. For the compound `CCCCCc1ccc(CC(=O)O)cc1`, the logP came out at 3.75. Compound `CCCCCCc1ccc(CC(=O)O)cc1` yielded a logP of 4.25. `Cc1cc(C)cc(C2C(=O)c3ccccc3C2=O)c1` registered a logP of 4.02. In the case of `O=[N+]([O-])c1cc(Br)c(O)c(Br)c1`, the logP is 3.07. For `CC(C)c1cc(C(C)C)cc(C2C(=O)c3ccccc3C2=O)c1` the value was 5.96. `Cc1cc(C)c(C)c(C(=O)O)c1C` showed a logP of 4.19. Then `O=C1c2ccccc2C(=O)C1c1ccc(Cl)cc1`, with 3.61; and `CCc1cc(CC)cc(C2C(=O)c3ccccc3C2=O)c1`, with 4.94. Regarding `CCCCCCCCC(=O)O`, the logP is 3.42. In turn, `CCc1cccc(C2C(=O)c3ccccc3C2=O)c1` came in with a lipophilicity (logP) of 3.92.

As to `O=C(O)Cc1ccc([N+](=O)[O-])cc1`, the logP was 1.54. Compound `CCCCCCCCCCCC(=O)O` registered a logP of 4.92. For `COc1cccc(C2C(=O)c3ccccc3C2=O)c1` the value was 2.88.

Consider `COc1cc(OC)cc(C2C(=O)c3ccccc3C2=O)c1`, for which the lipophilicity (logP) was found to be 2.86. Take `Cc1ccc(C(=O)O)c(C)c1`: the log partition coefficient (logP) turned out to be 3.01.
